Consider one compound from patent US20030055067A1, “Antifungal composition with enhanced bioavailability” (SCHERING CORPORATION, priority 2001, published 2003).

For data set [1], the system named is Aspergillis, Candida, Cryptococcus, Fusarium, and other opportunistic fungi. As to conditions: broad range of fungi; cited from earlier work.
A short description of data set [2]: Randomized, open-label, 4-way crossover, single-dose bioavailability and food effect study. Type of data set: in vivo, healthy subjects. Particulars: for 0-hour plasma concentration of posaconazole: likely carry-over from previous doses. An excerpt: The relative bioavailability of the posaconazole oral suspension was compared to a solid dosage form of posaconazole in healthy subjects. The first objective was to determine the relative bioavailability of posaconazole given as an oral suspension compared to an oral solid formulation when administered with a high-fat breakfast. The second objective was to determine the effect of high-fat and non-fat food relative to fasting conditions on the oral bioavailability of the compound of formula I when given as an oral suspension. Twenty healthy subjects completed this randomized, open-label, 4-way crossover, single-dose bioavailability and food effect study of posaconazole. Subjects received each of the following four treatments separated by at least a 7 day washout period: [table] Subjects were randomized to either remain fasted (Treatment A), to receive a standardized high fat breakfast (Treatment B or D) or a standardized non-fat breakfast (Treatment C). Meals were consumed in a 20-minute period prior to the morning drug administration and subjects received the appropriate treatment within 5 minute of completing the breakfast. […] The area under the plasma concentration-time curve from time zero to the final quantifiable sampling time [AUC(tf)] was calculated using the linear trapezoidal method and extrapolated to infinity (I) as follows: [formula] where C(tf) is the estimated concentration determined from linear regression at time, tf. Total body clearance was calculated by the following: CL=Dose/AUC(I) The apparent volume of distribution ([…]) was calculated from the ratio of the total body clearance to the terminal phase rate constant (K). Summary statistics were calculated for the plasma suspension formulation of the present invention compared to a prior art tablet formulation concentration-time data at each time point and the derived pharmacokinetic parameters. The original scale and log-transformed Cmax and AUC values were analyzed using an analysis of variance (ANOVA). […]

Data set [3] in a line: Lipophilicity and water solubility (background statement). Type of data set: physicochemical.
Data set [4] is described as follows: Rate of sedimentation of the oral suspension (HPLC assay after shaking and rest). Type of data set: physicochemical. Particulars: after 3 days. As for the experimental part: The rate of sedimentation of the liquid suspension of the present invention was determined as set forth below. Two bottles containing the suspension of the present invention were shaken and left to rest. The bottles were then sampled immediately (time zero), then after 5 minutes, 10 minutes, 30 minutes, 60 minutes and after 72 hours (three days) post shaking. The levels of posaconazole and of the preservative (Sodium Benzoate) in these samples were assayed by HPLC. HPLC methods of detection are well-known to one of skill in the art.

SMILES strings stand for the structures.

For `CC[C@@H]([C@H](C)O)n1ncn(-c2ccc(N3CCN(c4ccc(OC[C@@H]5CO[C@@](Cn6cncn6)(c6ccc(F)cc6F)C5)cc4)CC3)cc2)c1=O` [posaconazole], the antifungal activity entry in data set [1] was “potent”. Further, the “0-hour plasma concentration of posaconazole” value in data set [2] (Subject 20, Treatment A) was 22.5 ng/mL. For the same compound, in data set [2] (Subject 20, Treatment B), the “0-hour plasma concentration of posaconazole” value was 8.5 ng/mL. Besides, the “mean terminal t½” value in data set [2] (independent of treatment) is “about 22 hour”. For the same compound, in data set [3], the lipophilicity result is recorded as “highly lipophilic” and the water solubility result was “extremely low”. The sedimentation of posaconazole result in data set [4] is recorded as “not sedimented”.
